Source: ChEMBL document CHEMBL4477213, “Discovery and Optimization of Quinazolinone-pyrrolopyrrolones as Potent and Orally Bioavailable Pan-Pim Kinase Inhibitors” (J Med Chem, 2016)

Tests used:
[1] = system: Mus musculus; experiment: In vivo inhibition of pan Pim in SCID-bg mouse xenografted with human KMS-12-BM cells assessed as phosphorylation of BAD peptide at Serine 112 residue at 10 mg/kg, po qd measured at 4 hrs post dose relative to control; type: functional; parameters: scale not given: the % may be the effect or the level left
[2] = Fraction unbound in mouse plasma; type: ADME, cell-free
[3] = system: Mus musculus; experiment: In vivo inhibition of pan Pim in SCID-bg mouse xenografted with human KMS-12-BM cells assessed as phosphorylation of BAD peptide at Serine 112 residue at 50 mg/kg, po qd measured at 8 hrs post dose relative to control; type: functional; parameters: scale not given: the % may be the effect or the level left
[4] = system: Mus musculus; experiment: In vivo inhibition of pan Pim in SCID-bg mouse xenografted with human KMS-12-BM cells assessed as phosphorylation of BAD peptide at Serine 112 residue at 10 mg/kg, po qd measured at 8 hrs post dose relative to control; type: functional; parameters: scale not given: the % may be the effect or the level left
[5] = system: Mus musculus; experiment: In vivo inhibition of pan Pim in SCID-bg mouse xenografted with human KMS-12-BM cells assessed as phosphorylation of BAD peptide at Serine 112 residue at 10 mg/kg, po qd measured at 12 hrs post dose relative to control; type: functional; parameters: scale not given: the % may be the effect or the level left
[6] = system: Mus musculus; experiment: In vivo inhibition of pan Pim in SCID-bg mouse xenografted with human KMS-12-BM cells assessed as phosphorylation of BAD peptide at Serine 112 residue at 50 mg/kg, po qd measured at 12 hrs post dose relative to control; type: functional; parameters: scale not given: the % may be the effect or the level left
[7] = system: KMS-12-BM; experiment: Antitumor activity against human KMS-12-BM cells xenografted in SCID-bg mouse assessed as tumor growth inhibition at 50 mg/kg, po qd measured twice per week; type: functional; details: read-out: TGI
[8] = Oral bioavailability in dog; type: ADME, organism-based, Canis lupus familiaris; details: in vivo
[9] = target: T1, Mitogen-activated protein kinase kinase kinase 19 (Homo sapiens) (UniProt Q56UN5); experiment: Inhibition of human YSK4 (1019 to 1328 residues) expressed in mammalian system assessed as remaining enzyme activity at 1 uM by KINOMEScan assay relative to control
T1 sequence (whole entry): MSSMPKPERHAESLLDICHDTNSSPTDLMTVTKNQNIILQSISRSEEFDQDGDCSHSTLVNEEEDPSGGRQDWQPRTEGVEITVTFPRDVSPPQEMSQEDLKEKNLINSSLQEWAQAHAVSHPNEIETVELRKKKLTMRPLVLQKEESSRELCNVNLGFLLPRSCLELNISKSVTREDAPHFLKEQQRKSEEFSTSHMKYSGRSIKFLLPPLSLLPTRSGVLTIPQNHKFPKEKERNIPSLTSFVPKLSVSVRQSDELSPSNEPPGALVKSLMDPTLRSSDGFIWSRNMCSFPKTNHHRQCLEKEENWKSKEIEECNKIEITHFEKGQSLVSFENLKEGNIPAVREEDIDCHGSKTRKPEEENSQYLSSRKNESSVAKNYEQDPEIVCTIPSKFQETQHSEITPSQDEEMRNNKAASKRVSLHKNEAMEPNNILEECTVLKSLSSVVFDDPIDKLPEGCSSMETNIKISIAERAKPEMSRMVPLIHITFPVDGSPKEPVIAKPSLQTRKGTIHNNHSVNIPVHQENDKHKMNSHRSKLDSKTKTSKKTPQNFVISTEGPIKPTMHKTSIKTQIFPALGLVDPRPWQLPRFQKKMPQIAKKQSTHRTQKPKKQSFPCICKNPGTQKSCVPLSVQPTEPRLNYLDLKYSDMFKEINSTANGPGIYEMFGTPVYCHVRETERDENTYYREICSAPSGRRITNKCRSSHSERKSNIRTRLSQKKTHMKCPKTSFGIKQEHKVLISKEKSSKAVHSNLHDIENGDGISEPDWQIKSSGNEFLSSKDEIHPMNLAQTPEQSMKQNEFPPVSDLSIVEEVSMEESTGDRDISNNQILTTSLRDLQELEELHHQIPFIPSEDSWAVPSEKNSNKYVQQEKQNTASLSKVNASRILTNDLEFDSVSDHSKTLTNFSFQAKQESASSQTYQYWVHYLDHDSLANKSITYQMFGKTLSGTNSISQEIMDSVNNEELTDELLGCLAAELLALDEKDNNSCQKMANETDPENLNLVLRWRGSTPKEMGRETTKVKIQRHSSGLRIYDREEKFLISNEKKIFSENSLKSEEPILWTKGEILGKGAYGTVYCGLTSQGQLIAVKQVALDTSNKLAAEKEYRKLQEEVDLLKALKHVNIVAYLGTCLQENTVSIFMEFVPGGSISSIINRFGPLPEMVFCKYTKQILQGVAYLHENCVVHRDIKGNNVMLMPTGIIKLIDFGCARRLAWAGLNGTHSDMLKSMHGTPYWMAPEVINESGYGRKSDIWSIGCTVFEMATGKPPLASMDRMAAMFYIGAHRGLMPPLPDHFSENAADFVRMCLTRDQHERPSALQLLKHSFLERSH

[10] = system: KMS-12-BM; experiment: Antitumor activity against human KMS-12-BM cells xenografted in SCID-bg mouse assessed as tumor growth inhibition at 25 mg/kg, po qd measured twice per week; type: functional; details: read-out: TGI
[11] = system: Mus musculus; experiment: In vivo inhibition of pan Pim in SCID-bg mouse xenografted with human KMS-12-BM cells assessed as phosphorylation of BAD peptide at Serine 112 residue at 100 mg/kg, po qd measured at 4 hrs post dose relative to control; type: functional; parameters: scale not given: the % may be the effect or the level left
[12] = system: Mus musculus; experiment: In vivo inhibition of pan Pim in SCID-bg mouse xenografted with human KMS-12-BM cells assessed as phosphorylation of BAD peptide at Serine 112 residue at 100 mg/kg, po qd measured at 8 hrs post dose relative to control; type: functional; parameters: scale not given: the % may be the effect or the level left
[13] = system: Mus musculus; experiment: In vivo inhibition of pan Pim in SCID-bg mouse xenografted with human KMS-12-BM cells assessed as phosphorylation of BAD peptide at Serine 112 residue at 25 mg/kg, po qd measured at 1 hr post dose relative to control; type: functional; parameters: scale not given: the % may be the effect or the level left

Cp(f) [2]: 21.4 nM | bioavailability [8]: 44% | Activity [9]: 0.4%
Structure (SMILES): C[C@H]1NC(=O)c2cc(-c3cccc4c(=O)n(C)c(NC(C)(C)C)nc34)[nH]c21
Activity [1]: 50% | Activity [3]: 85% | Activity [4]: 41% | Activity [5]: 34% | Activity [6]: 65% | inhibition in vivo at 50 mg/kg [7]: 93% | inhibition in vivo at 25 mg/kg [10]: 65% | Activity [11]: 63% | Activity [12]: 70% | Activity [13]: 60%
